Reference: the supplement of paper PMC10307832

Columns and labels:
Assay in all cases: relative viability (nuclei count vs DMSO), 5 days (fraction); higher = more cells survive
[1] = compound: C1=CC2=NC=CN=C2C=C1/C=C/3\C(=O)NC(=O)S3 + CS(=O)(=O)CCNCc1ccc(-c2ccc3ncnc(Nc4ccc(OCc5cccc(F)c5)c(Cl)c4)c3c2)o1 [Lapatinib] (partner 2 µM)
Outline: (§1)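 Nuclei were stained with Hoechst during a one-step fixation (final 0.05% Triton X-100, 1% formaldehyde, 1 ug/ml Hoechst) carried out 5 days after dosing, then counted on 4× images. The cells, lung cancer lines in 1536-well plates, had been dosed by pin tool the day after seeding with one drug alone or a fixed anchor-drug dose plus five library-drug doses (not always all listed) in √10 steps. Relative viability is the nuclei count in treated wells divided by that in vehicle wells, and each value is the median of duplicate plates.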

BGJ398 + Alpelisib = compound: CCN1CCN(c2ccc(Nc3cc(N(C)C(=O)Nc4c(Cl)c(OC)cc(OC)c4Cl)ncn3)cc2)CC1 [BGJ398] + Cc1nc(NC(=O)N2CCC[C@H]2C(N)=O)sc1-c1ccnc(C(C)(C)C(F)(F)F)c1 [Alpelisib] (partner 2 µM)
Outline: as §1

BGJ398 + Tozasertib = compound: CCN1CCN(c2ccc(Nc3cc(N(C)C(=O)Nc4c(Cl)c(OC)cc(OC)c4Cl)ncn3)cc2)CC1 [BGJ398] + Cc1cc(Nc2cc(N3CCN(C)CC3)nc(Sc3ccc(NC(=O)C4CC4)cc3)n2)n[nH]1 [Tozasertib] (partner 0.1 µM)
Outline: as §1

BGJ398 + Olaparib = compound: CCN1CCN(c2ccc(Nc3cc(N(C)C(=O)Nc4c(Cl)c(OC)cc(OC)c4Cl)ncn3)cc2)CC1 [BGJ398] + O=C(c1cc(Cc2n[nH]c(=O)c3ccccc23)ccc1F)N1CCN(C(=O)C2CC2)CC1 [Olaparib] (partner 8 µM)
Outline: as §1

| Cell Line | relative viability ([1]; first compound 0.02 µM) | relative viability ([1]; first compound 0.06325 µM) | relative viability ([1]; first compound 0.2 µM) | relative viability ([1]; first compound 0.6325 µM) | relative viability ([1]; first compound 2 µM) | relative viability (BGJ398 + Alpelisib; first compound 0.01 µM) | relative viability (BGJ398 + Alpelisib; first compound 0.03162 µM) | relative viability (BGJ398 + Alpelisib; first compound 0.1 µM) | relative viability (BGJ398 + Alpelisib; first compound 0.3162 µM) | relative viability (BGJ398 + Alpelisib; first compound 1 µM) | relative viability (BGJ398 + Tozasertib; first compound 0.01 µM) | relative viability (BGJ398 + Tozasertib; first compound 0.03162 µM) | relative viability (BGJ398 + Tozasertib; first compound 0.1 µM) | relative viability (BGJ398 + Tozasertib; first compound 0.3162 µM) | relative viability (BGJ398 + Tozasertib; first compound 1 µM) | relative viability (BGJ398 + Olaparib; first compound 0.01 µM) | relative viability (BGJ398 + Olaparib; first compound 0.03162 µM) | relative viability (BGJ398 + Olaparib; first compound 0.1 µM) | relative viability (BGJ398 + Olaparib; first compound 0.3162 µM) | relative viability (BGJ398 + Olaparib; first compound 1 µM) |
| --- | --- | --- | --- | --- | --- | --- | --- | --- | --- | --- | --- | --- | --- | --- | --- | --- | --- | --- | --- | --- |
| HCC-44 | 0.961 | 1.09 | 0.975 | 0.993 | 0.793 | 0.8 | 0.761 | 0.763 | 0.856 | 0.815 | 0.77 | 0.947 | 1.07 | 1.1 | 0.698 | 0.963 | 0.952 | 1.02 | 0.931 | 0.953 |
| HCC-78 | 0.701 | 0.729 | 0.91 | 0.554 | 0.168 | 0.274 | 0.311 | 0.378 | 0.366 | 0.338 | 0.355 | 0.461 | 0.445 | 0.419 | 0.476 | 0.785 | 0.838 | 0.967 | 0.78 | 0.823 |
| HCC-366 | 0.999 | 0.927 | 1.03 | 0.905 | 1.04 | 0.417 | 0.478 | 0.676 | 0.404 | 0.348 | 0.128 | 0.111 | 0.092 | 0.0966 | 0.0852 | 0.368 | 0.378 | 0.422 | 0.335 | 0.448 |
| HCC-827 | 0.217 | 0.247 | 0.209 | 0.215 | 0.233 | 0.821 | – | 1.1 | 0.962 | 1.05 | 0.325 | – | 0.441 | 0.363 | 0.401 | 0.468 | – | 0.583 | 0.482 | 0.628 |
| HOP-62 | 1.04 | 0.796 | 0.944 | 1.05 | 0.958 | 0.721 | 1.02 | 0.824 | 0.861 | 0.984 | 0.375 | 0.399 | 0.411 | 0.395 | 0.364 | 0.291 | 0.525 | 0.538 | 0.349 | 0.558 |
| IA-LM | 0.69 | – | 0.698 | 0.771 | 0.65 | 0.541 | 0.898 | 0.733 | 0.625 | 0.702 | – | – | – | – | – | 0.772 | 0.841 | 0.917 | 0.742 | 0.79 |
| LC-2-ad | 0.927 | 1.04 | 0.949 | 0.924 | 0.797 | 0.926 | 0.871 | 0.924 | 0.968 | 0.915 | 0.451 | 0.489 | 0.486 | 0.474 | 0.374 | 0.766 | 0.759 | 0.694 | 0.677 | 0.749 |
| LCLC-97TM1 | 0.751 | 1.12 | 1.73 | 0.817 | 0.27 | 0.233 | 0.269 | 0.231 | 0.214 | 0.265 | 0.239 | 0.224 | 0.293 | 0.23 | 0.35 | 0.294 | 0.393 | 0.443 | 0.508 | 0.277 |
| LCLC-103H | – | – | – | – | – | 1.03 | 0.954 | 0.991 | 0.975 | 0.778 | 0.429 | 0.445 | 0.424 | 0.487 | 0.341 | 0.756 | 0.787 | 0.726 | 0.717 | 0.596 |
| LK-2 | 1.01 | 0.992 | 0.934 | 0.825 | 0.481 | 0.813 | 0.936 | 0.557 | 0.381 | 0.311 | 0.202 | 0.168 | 0.157 | 0.149 | 0.173 | 0.624 | 0.532 | 0.374 | 0.186 | 0.227 |
| NCI-H441 | – | – | – | – | – | 0.775 | 0.707 | 0.644 | 0.73 | 0.593 | 0.702 | 0.652 | 0.529 | 0.615 | 0.687 | – | 0.619 | 0.483 | 0.555 | 0.536 |
| NCI-H522 | – | – | – | – | – | – | – | – | – | – | 0.5 | 0.552 | 0.445 | 0.586 | 0.483 | 0.714 | 0.684 | 0.607 | 0.651 | 0.621 |
| NCI-H1299 | 0.962 | 1.04 | 0.946 | 0.965 | 0.993 | 0.999 | 1.07 | 1 | 1.05 | 1.08 | – | – | – | – | – | 0.961 | 0.971 | 0.977 | 1 | 0.999 |
| NCI-H1563 | 0.876 | 0.854 | 0.898 | 0.867 | 0.873 | 0.858 | 0.96 | 0.802 | 0.778 | 0.677 | – | – | – | – | – | – | – | – | – | – |
| NCI-H1623 | – | – | – | – | – | – | – | – | – | – | 0.427 | 0.407 | 0.448 | 0.455 | 0.447 | – | – | – | – | – |
| NCI-H1648 | – | – | – | – | – | – | – | – | – | – | 0.304 | 0.58 | 0.469 | 0.399 | 0.44 | 0.658 | – | 1.18 | 0.85 | 0.487 |
| NCI-H1650 | 0.728 | 0.725 | 0.937 | 0.709 | 0.72 | – | – | – | – | – | 0.498 | – | 0.464 | 0.289 | 0.356 | 0.81 | 0.838 | 0.786 | 0.826 | 0.811 |
| NCI-H1703 | 1.06 | 1.29 | 1.07 | 0.946 | 0.89 | 0.331 | 0.394 | 0.348 | 0.332 | 0.359 | – | – | – | – | – | 0.342 | 0.396 | 0.379 | 0.364 | 0.543 |
| NCI-H1792 | 0.948 | 0.851 | 0.839 | 0.953 | 0.554 | 0.634 | 0.755 | 0.898 | 0.706 | 0.456 | – | – | – | – | – | 0.494 | 0.351 | 0.281 | 0.607 | 0.282 |
| NCI-H2342 | – | – | – | – | – | – | – | – | – | – | 0.415 | 0.49 | 0.655 | 0.536 | 0.505 | 0.517 | 0.46 | 0.541 | 0.482 | 0.444 |
| SW 900 | – | – | – | – | – | – | – | – | – | – | 0.55 | 0.552 | 0.495 | 0.484 | 0.429 | 0.867 | 0.822 | 0.851 | 0.679 | 0.761 |
